Laboratory results as given in patent publication US20050043378A1, “LTA4H modulators” (priority 2003, published 2005).
Read-outs that look alike come from different tables or passages of the source.

Experiments:
[1] = tested on: ex vivo stimulated LTB4 production in blood; assay: Murine arachidonic acid-induced inflammation model: ex vivo stimulated LTB4 production; parameters: species or system female Balb/c mice; details: Mus musculus; 30 mg/kg oral gavage; blood taken 3 h after arachidonic acid, ex vivo A23187 stimulation; vs animals without inhibitor; read-out: % Inh. LTB4
[2] = tested on: neutrophil influx (myeloperoxidase, MPO); assay: Murine arachidonic acid-induced inflammation model: neutrophil influx (myeloperoxidase activity in ear biopsies); type: in vivo, female Balb/c mice; details: Mus musculus, 30 mg/kg oral gavage 60 min before topical arachidonic acid to ear, ear biopsies after 3 h, vs animals without inhibitor, read-out: % Inh. MPO
[3] = biological target: T1, recombinant human LTA4 hydrolase (rhLTA4H) (Homo sapiens, UniProt P09960); assay: Recombinant human LTA4 hydrolase assay for LTA4 hydrolase inhibitor activity; type: biochemical; details: LTA4 substrate, LTB4 by immunoassay, average of one to three determinations;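 note: enzyme expressed in Sf-9 insect cells, compound preincubated 10 min with enzyme, 10 min reaction at room temperature, uninhibited reaction as positive control, enzyme-free blank as negative control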
T1 construct: made in house; host or cells: Spodoptera frugiperda (Sf-9) cells, baculovirus (pFastBac1)
T1 sequence (P09960 1-611): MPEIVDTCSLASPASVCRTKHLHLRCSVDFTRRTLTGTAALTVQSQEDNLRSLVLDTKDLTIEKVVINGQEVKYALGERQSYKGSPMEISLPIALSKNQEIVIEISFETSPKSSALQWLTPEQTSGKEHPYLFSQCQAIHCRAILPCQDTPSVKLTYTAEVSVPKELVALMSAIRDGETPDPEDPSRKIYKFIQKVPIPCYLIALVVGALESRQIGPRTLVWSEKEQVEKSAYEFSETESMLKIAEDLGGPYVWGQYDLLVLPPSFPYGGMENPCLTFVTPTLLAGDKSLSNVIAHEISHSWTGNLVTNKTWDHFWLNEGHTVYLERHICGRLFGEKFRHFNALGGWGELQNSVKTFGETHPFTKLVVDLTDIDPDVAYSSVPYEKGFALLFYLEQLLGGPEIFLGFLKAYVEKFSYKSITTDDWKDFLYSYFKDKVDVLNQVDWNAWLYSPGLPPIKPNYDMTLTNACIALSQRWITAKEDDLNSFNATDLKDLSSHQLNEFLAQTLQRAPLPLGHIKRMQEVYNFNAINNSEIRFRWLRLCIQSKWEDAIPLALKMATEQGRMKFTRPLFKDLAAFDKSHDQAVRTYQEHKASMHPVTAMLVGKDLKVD

[4] = tested on: LTB4 production by calcium ionophore-stimulated murine blood; assay: LTB4 production by calcium ionophore-stimulated murine blood for LTA4H inhibitor activity; type: cell-based, CD-1 mice
[5] = diluted CD-1 mouse whole blood, A23187 stimulation, LTB4 by immunoassay, read-out: IC50

SMILES | IC50 [3] [µM] | IC50 [4, 5] [µM] | IC50 ([4]; Mus musculus) [µM] | inhibition at 30 mg/kg [1] [%] | inhibition in vivo at 30 mg/kg [2] [%]
NC(=O)C1CCN(Cc2ccc(Oc3nc4ccccc4s3)cc2)CC1 [Example 274, 1-[4-(Benzothiazol-2-yloxy)-benzyl]-piperidine-4-carboxylic acid amide] | – | – | – | 93 | 87
OC1CCN(CCc2ccc(Oc3nc4ccccc4[nH]3)cc2)CC1 [Example 127, 1-{2-[4-(1H-Benzoimidazol-2-yloxy)-phenyl]-ethyl}-piperidin-4-ol] | – | 0.376 | – | – | –
O=C(O)C1CCCCN1CCc1ccc(Oc2nc3ccccc3s2)cc1 (stereo not drawn) [Example 156, 1-{2-[4-(Benzothiazol-2-yloxy)-phenyl]-ethyl}-piperidine-2-carboxylic acid] | 0.007 | 2 | – | – | –
OCC1CCN(CCOc2ccc(Oc3nc4ccccc4o3)cc2)CC1 [Example 13, (1-{2-[4-(Benzooxazol-2-yloxy)-phenoxy]ethyl}-piperidin-4-yl)-methanol] | – | 0.041 | – | – | –
CN(C)CCOc1ccc(Oc2nc3ccccc3o2)cc1 [Example 46, {2-[4-(Benzooxazol-2-yloxy)-phenoxy]-ethyl}-dimethyl-amine] | 0.017 | 0.029 | – | – | –
c1ccc2oc(Oc3ccc(OCCN4CCCCC4)cc3)nc2c1 [Example 11, 2-[4-(2-Piperidin-1-yl-ethoxy)-phenoxy]-benzooxazole] | – | 0.044 | – | – | 95
OCC1CCN(CCOc2ccc(Oc3nc4ccccc4[nH]3)cc2)CC1 [Example 133, (1-{2-[4-(1H-Benzoimidazol-2-yloxy)-phenoxy]-ethyl}-piperidin-4-yl)-methanol] | 0.111 | 0.29 | – | – | –
O=C(O)C1CCN(Cc2ccc(Oc3nc4ccccc4s3)cc2)CC1 [Example 250, 1-[4-(Benzothiazol-2-yloxy)-benzyl]-piperidine-4-carboxylic acid] | – | – | – | 80 | 94
OCCCN(CCc1ccc(Oc2nc3ccccc3s2)cc1)C1CC1 [Example 198, 3-({2-[4-(Benzothiazol-2-yloxy)-phenyl]-ethyl}-cyclopropyl-amino)-propan-1-ol] | – | 0.039 | – | – | –
OC1CCN(CCOc2ccc(Oc3nc4ccccc4o3)cc2)CC1 [Example 14, 1-{2-[4-(Benzooxazol-2-yloxy)-phenoxy]-ethyl}-piperidin-4-ol] | – | – | 0.089 | 81 | 56
OC1CCN(CCOc2ccc(Oc3nc4ccccc4[nH]3)cc2)CC1 [Example 134, 1-{2-[4-(1H-Benzoimidazol-2-yloxy)-phenoxy]-ethyl}-piperidin-4-ol] | 0.11 | 0.436 | – | – | –
Oc1ccc(N2CCN(CCOc3ccc(Oc4nc5ccccc5s4)cc3)CC2)cc1 [Example 167, 4-(4-{2-[4-(Benzothiazol-2-yloxy)-phenoxy]-ethyl}-piperazin-1-yl)-phenol] | 0.037 | – | – | – | –
CCN(CCc1ccc(Oc2nc3ccccc3[nH]2)cc1)C1CCCCC1 [Example 123, {2-[4-(1H-Benzoimidazol-2-yloxy)-phenyl]-ethyl}-cyclohexyl-ethyl-amine] | 0.004 | – | – | – | –
OC1CCN(CCc2ccc(Oc3nc4ccccc4o3)cc2)CC1 [Example 94, 1-{2-[4-(Benzooxazol-2-yloxy)-phenyl]-ethyl}-piperidin-4-ol] | 0.001 | 0.072 | – | – | –
O=C(O)[C@@H]1CCCC[C@H]1NCCc1ccc(Oc2nc3ccccc3s2)cc1 [Example 225, (1 R,2R)-2-{2-[4-(Benzothiazol-2-yloxy)-phenyl]-ethylamino}-cyclohexanecarboxylic acid] | 0.025 | – | – | – | –
O=C1C[C@H](O)CN1C1CCN(CCOc2ccc(Oc3nc4ccccc4s3)cc2)CC1 [Example 207, (S)-1-(1-{2-[4-(Benzothiazol-2-yloxy)-phenoxy]-ethyl}-piperidin-4-yl)-4-hydroxy-pyrrolidin-2-one] | 0.016 | 0.081 | – | – | –
OC1(c2ccccc2)CCN(CCOc2ccc(Oc3nc4ccccc4[nH]3)cc2)CC1 [Example 37, 1-{2-[4-(1H-Benzoimidazol-2-yloxy)-phenoxy]-ethyl}-4-phenyl-piperidin-4-ol] | 0.01 | – | – | – | –
CC(C)(C)OC(=O)N1CCC(c2nnnn2CCOc2ccc(Oc3nc4ccccc4s3)cc2)CC1 [Example 176, 4-(1-{2-[4-(Benzothiazol-2-yloxy)-phenoxy]-ethyl}-1H-tetrazol-5-yl)-piperidine-1-carboxylic acid tert-butyl ester] | 0.012 | – | – | – | –
OC1(c2ccccc2)CCN(Cc2ccc(Oc3nc4ccccc4s3)cc2)CC1 [Example 358, 1-[4-(Benzothiazol-2-yloxy)-benzyl]-4-phenyl-piperidin-4-ol] | 0.011 | – | – | – | –
NC(=O)C1CCCN(CCc2ccc(Oc3nc4ccccc4s3)cc2)C1 (stereo not drawn) [Example 31, 1-{2-[4-(Benzothiazol-2-yloxy)-phenyl]-ethyl}-piperidine-3-carboxylic acid amide] | 0.017 | – | – | – | –
OCC1CCCN(CCc2ccc(Oc3nc4ccccc4s3)cc2)C1 (stereo not drawn) [Example 161, (1-{2-[4-(Benzothiazol-2-yloxy)-phenyl]-ethyl}-piperidin-3-yl)-methanol] | 0.001 | 0.1 | – | – | –
O=C(Cc1ccccc1)NC1CCN(CCc2ccc(Oc3nc4ccccc4s3)cc2)CC1 [Example 110, N-(1-{2-[4-(Benzothiazol-2-yloxy)-phenyl]-ethyl}-piperidin-4-yl)-2-phenyl-acetamide] | 0.04 | – | – | – | –

Now from value to compound, other results behind:

IC50 [3] [µM] | IC50 [4, 5] [µM] | IC50 ([4]; Mus musculus) [µM] | SMILES | inhibition at 30 mg/kg [1] [%] | inhibition in vivo at 30 mg/kg [2] [%]
0.033 | 0.081 | – | O=C1C[C@@H](O)CN1C1CCN(CCOc2ccc(Oc3nc4ccccc4s3)cc2)CC1 [Example 261, (R) 1-(1-{2-[4-(Benzothiazol-2-yloxy)-phenoxy]-ethyl}-piperidin-4-yl)-4-hydroxy-pyrrolidin-2-one] | – | –
0.1 | 0.453 | – | O=C1C[C@@H](O)CN1C1CCN(CCc2ccc(Oc3nc4ccccc4s3)cc2)CC1 [Example 334, (R)-1-(1-{2-[4-(Benzothiazol-2-yloxy)-phenyl]-ethyl}-piperidin-4-yl)-4-hydroxy-pyrrolidin-2-one] | – | –
0.033 | 0.133 | – | OCCC1CCN(Cc2ccc(Oc3nc4ccccc4s3)cc2)CC1 [Example 296, 2-{1-[4-(Benzothiazol-2-yloxy)-benzyl]-piperidin-4-yl}-ethanol] | – | –
0.006 | 0.017 | – | OCCN(CCc1ccc(Oc2nc3ccccc3s2)cc1)CC1CC1 [Example 380, 2-({2-[4-(Benzothiazol-2-yloxy)-phenyl]-ethyl}-cyclopropylmethyl-amino)-ethanol] | – | –
0.06 | 0.212 | – | OCC1CCCN(Cc2ccc(Oc3nc4ccccc4s3)cc2)C1 (stereo not drawn) [Example 302, {1-[4-(Benzothiazol-2-yloxy)-benzyl]-piperidin-3-yl}-methanol] | – | –
0.015 | 0.069 | – | OCC1CCCCN1Cc1ccc(Oc2nc3ccccc3s2)cc1 (stereo not drawn) [Example 298, {1-[4-(Benzothiazol-2-yloxy)-benzyl]-piperidin-2-yl}-methanol] | – | –
0.021 | 0.105 | – | CCN(CCCN1CCCC1=O)Cc1ccc(Oc2nc3ccccc3s2)cc1 [Example 437, 1-(3-{[4-(Benzothiazol-2-yloxy)-benzyl]-ethyl-amino}-propyl)-pyrrolidin-2-one] | – | –
0.027 | 0.144 | – | CCOC(=O)NC1CCN(Cc2ccc(Oc3nc4ccccc4s3)cc2)CC1 [Example 462, {1-[4-(Benzothiazol-2-yloxy)-benzyl]-piperidin-4-yl}-carbamic acid ethyl ester] | – | –
0.012 | – | – | O=C(CO)N1CCN(CCc2ccc(Oc3nc4ccccc4s3)cc2)CC1 [Example 325, 1-(4-{2-[4-(Benzothiazol-2-yloxy)-phenyl]-ethyl}-piperazin-1-yl)-2-hydroxy-ethanone] | 76 | 67
0.019 | 0.011 | – | CCN(CC)CCOc1ccc(Oc2nc3ccccc3o2)cc1 [Example 484, {2-[4-(Benzooxazol-2-yloxy)-phenoxy]-ethyl}-diethyl-amine] | – | –
0.008 | – | – | CS(=O)(=O)NC1CCN(Cc2ccc(Oc3nc4ccccc4s3)cc2)CC1 [Example 361, N-{1-[4-(Benzothiazol-2-yloxy)-benzyl]-piperidin-4-yl}-methanesulfonamide] | 86 | 90
0.019 | – | – | CC(=O)N(C)C1CCN(Cc2ccc(Oc3nc4ccccc4s3)cc2)CC1 [Example 471, N-{1-[4-(Benzothiazol-2-yloxy)-benzyl]-piperidin-4-yl}-N-methyl-acetamide] | 90 | 89
0.004 | 0.057 | – | OCCC1CCCCN1Cc1ccc(Oc2nc3ccccc3s2)cc1 (stereo not drawn) [Example 288, 2-{1-[4-(Benzothiazol-2-yloxy)-benzyl]-piperidin-2-yl}-ethanol] | – | –
